Laboratory results: US20260334464A1, “INCREASED PALATABILITY OF INSECTICIDAL INSECT BAITS” (BIO LOGIC CROP SCIENCE S.L., priority 2023, published 2026)

What was measured:
Type in all cases: in vivo
insects [1] = assay: Insecticidal efficacy / mortality of baits, general statement; conditions: for time to elimination of the insects (delayed mortality): cycloserine exclusively as active ingredient in bait; for difference in kill or duration between D-, L-cycloserine and mixtures: more detailed trials
Experimental: On the other hand, in addition to the effect of increased palatability, the effect on mortality of compositions containing D-cycloserine, L-cycloserine and DL-cycloserine was investigated.
At this point, we encounter the unexpected situation, not observed in previous trials because it is not usual to determine death within a short time after exposure to the bait (e.g. from a few minutes to a maximum of 24 hours), that baits containing cycloserine exclusively as active ingredient (that is, in a conceptual simplification, water, sugar and cycloserine, or even water with cycloserine), both D-cycloserine and L-cycloserine or their mixtures in any ratio, present delayed mortality, reaching the elimination of the insects they have eaten in up to 7 days.

insects [2] = assay: Increase in palatability of baits, general statement; conditions: for comparison of activity of D and L isomers: D-cycloserine, L-cycloserine or mixtures in any ratio; for effect on palatability of baits (in words): general statement
Musca domestica = assay: Insecticidal efficacy of bait; conditions: according to our experience
Experimental: (§1) Flies: Bait is added at 10% in water used by the flies for drinking, placed in 10×10×10 cm^3 ordinary breeding nets, ad libitum.
(§2) Similarly, tests have been carried out with […] with house flies (Musca domestica) and with Mediterranean flies (Ceratitis capitata).

Ceratitis capitata = assay: Insecticidal efficacy of bait; conditions: according to our experience
Experimental: as §1, §2

Periplaneta americana = assay: Insecticidal efficacy of bait; conditions: according to our experience
Text: (§3) Cockroaches: The cockroach test protocol, which can be performed at any location with usual temperature and humidity conditions and with field- or insectary-raised cockroaches, consists of collecting cockroaches that are deprived of food for 7 days; on the day of the test, 4 females and 4 males (or the desired number, for individual measurements, only one individual) are placed in boxes in which the bait is placed in a known quantity and the number of visits to the bait is counted every certain time, optionally the quantity ingested every hour or certain minutes is determined by differential weighing. In examples where mortality is considered, the number of individuals turned over per hour (or other defined time) is observed. The bait is removed and replaced with a standard bait-such as pelleted dog food and a water source, such as moistened cotton wool- and daily mortality is monitored for one week.

Blatta orientalis = assay: Insecticidal efficacy of bait; conditions: according to our experience
Text: as §3

Blattella germanica = assay: Insecticidal efficacy of bait; conditions: according to our experience
Text: as §3

Culex pipiens = assay: Insecticidal efficacy of bait; conditions: according to our experience
Experimental: (§4) Mosquitoes: Bait is added at 10% in water used by mosquitoes for drinking, placed in ordinary breeding nets, 10×10×10 cm^3, ad libitum.
(§5) In the case of mosquito tests, the bait is given ad libitum to 50 specimens in 10 cm×10 cm×10 cm^3 cloth cages, using cotton wool impregnated with the baits mentioned above, but with a sugar mix content of only 10%, the rest being compensated by adding more water to the formula, so that it is liquid enough to be absorbed by the mosquitoes.

Aedes aegypti = assay: Insecticidal efficacy of bait; conditions: according to our experience
Experimental: as §4, §5

Aedes albopictus = assay: Insecticidal efficacy of bait; conditions: according to our experience
Experimental: as §4, §5

Anopheles gambiae = assay: Insecticidal efficacy of bait; conditions: according to our experience
Experimental: as §4

Culex quinquefasciatus = assay: Insecticidal efficacy of bait; conditions: according to our experience
Experimental: as §4

cockroach = assay: Transfer of lethal effect by cannibalism; conditions: cockroach offered a cycloserine-treated cockroach
Text: This circumstance, in addition to the use of cycloserine to increase the palatability of the baits, means that cycloserine can be used as an insecticide and also with an infrequent, or even unknown, particularity in pest control, i.e. the treated insects die in extraordinarily (relatively) long times of up to 7 days. This, which in principle may seem a disadvantage, is not so in certain cases, since it allows the ants to have more time to live functionally well, without external signs of intoxication that could warn other ants, and to transmit the bait by tropholaxy to the queen ant (or queen ants of the same anthill, when this is the case) and thus more effectively destroy the anthill. Similarly, the alertness (if any) of conspecifics to a dead cockroach near the bait is suppressed. […] Similarly, for long-term pest control, immediacy is not an insurmountable requirement, so it is also applicable in mosquito control to prevent disease transmission or pest control in agriculture.

Simuliidae ssp. = assay: Insecticidal efficacy of bait; conditions: according to our experience
Bactrocera oleae = assay: Insecticidal efficacy of bait; conditions: according to our experience
Periplaneta america = assay: Test 2A: palatability in terms of grams ingested (Example 2); conditions: cockroach test of Example 2
Text: as §3
A similar test was performed with Periplaneta america, Blattella germanica and Blatta orientialis cockroaches, as detailed below for the first species. In this case, it was possible to evaluate the amount of bait ingested per individual, with the formulas of this example corresponding to those of Example 1, but replacing the 20% fructose in all of them by 20% commercial hazelnut cream, so that we have the formulations C.2.1, P.2.1, P.2.2, P.2.3 with that change only.

Lasius niger [3] = assay: Insecticidal efficacy of bait; conditions: according to our experience
Experimental: (§6) Ants: The tests are conducted in transparent plastic boxes covered on top with a mixture of ethanol and talcum powder (talcol) which prevents ants from fleeing. A drop of bait is placed on a holder, and the holder is placed with 10-30 ants and the behaviour of the ants is observed.
(§7) The number of ants eating bait is counted every minute until 10′ and every 5 minutes until 30′. The boxes with ants are kept with the sample, with a source of humidity and alternative food to observe mortality at 24 hours and 48 hours.

Linepithema humile = assay: Insecticidal efficacy of bait; conditions: according to our experience
Experimental: as §6, §7

Bactrocera cucurbitae = assay: Insecticidal efficacy of bait; conditions: according to our experience
Lasius niger [4] = assay: Palatability of imidacloprid ant bait (Example 3); conditions: 0.01 wt. % imidacloprid in bait
Experimental: as §6, §7
To test the combination effect of cycloserine and/or phloxine with known insecticides used in baits, we used an ant bait-type composition and its equivalents of Example 1, but containing 0.01 wt. % of the insecticide imidacloprid. Serine was also tested in parallel instead of cycloserine.
The bait is offered to them, in boxes containing 10 Lasius niger ants each, for 3 hours, during which time palatability is observed.

ants = assay: Example 1 baits with serine, increase in palatability vs control (results not shown); conditions: serine instead of cycloserine, or combinations
Experimental: as §6, §7
On the other hand (results not shown), when serine is used instead of cycloserine in the bait, an increase in palatability is also observed, although somewhat lower, around 1.5-1.7 times compared to the control, and when serine, cycloserine and phloxine B, or serine and phloxine B are combined, this increase is 1.7-1-8 times compared to the control, with no appreciable differences between these last two combinations.

N[C@@H]1CONC1=O [D-cycloserine]
time to elimination of the insects (delayed mortality) (insects [1]): up to 7 days
difference in kill or duration between D-, L-cycloserine and mixtures (insects [1]): no significant difference in kill or duration
comparison of activity of D and L isomers (insects [2]): we have not seen an activity of one isomer greater than the other

N[C@H]1CONC1=O [L-cycloserine]
time to elimination of the insects (delayed mortality) (insects [1]): up to 7 days
difference in kill or duration between D-, L-cycloserine and mixtures (insects [1]): no significant difference in kill or duration
comparison of activity of D and L isomers (insects [2]): we have not seen an activity of one isomer greater than the other

N[C@@H]1CON=C1O [cycloserine]
time to elimination of the insects (delayed mortality) (insects [1]): up to 7 days
efficacy as an insecticide (Musca domestica): great efficacy
efficacy as an insecticide (Ceratitis capitata): great efficacy
comparison of activity of D and L isomers (insects [2]): activity we have observed to be the same
effect on palatability of baits (in words) (insects [2]): shown to increase the palatability of baits
efficacy as an insecticide (Periplaneta americana): great efficacy
efficacy as an insecticide (Blatta orientalis): great efficacy
efficacy as an insecticide (Blattella germanica): great efficacy
efficacy as an insecticide (Culex pipiens): great efficacy
efficacy as an insecticide (Aedes aegypti): great efficacy
efficacy as an insecticide (Aedes albopictus): great efficacy
efficacy as an insecticide (Anopheles gambiae): great efficacy
efficacy as an insecticide (Culex quinquefasciatus): great efficacy
transfer of lethal effect to another cockroach (cockroach): lethal effect of cycloserine on one cockroach is transferred to another cockroach
efficacy as an insecticide (Simuliidae ssp.): great efficacy
efficacy as an insecticide (Bactrocera oleae): great efficacy
effect on palatability (in words) (Periplaneta america): more pronounced
efficacy as an insecticide (Lasius niger [3]): great efficacy
efficacy as an insecticide (Linepithema humile): great efficacy
efficacy as an insecticide (Bactrocera cucurbitae): great efficacy

O=[N+]([O-])NC1=NCCN1Cc1ccc(Cl)nc1 [imidacloprid]
bait rejection (Lasius niger [4]): does not cause bait rejection

O=C([O-])c1c(Cl)c(Cl)c(Cl)c(Cl)c1-c1c2cc(Br)c(=O)c(Br)c-2oc2c(Br)c([O-])c(Br)cc12.[Na+].[Na+] [phloxine B]
effect on palatability of baits (in words) (insects [2]): shown to increase the palatability of baits

N[C@@H](CO)C(=O)O [serine]
effect on palatability of baits (in words) (insects [2]): shown to increase the palatability of baits
increase in palatability compared to the control (ants): 1.5-1.7 times
effect on palatability (in words) (Periplaneta america): increases palatability, but to a lesser extent than cycloserine
